Experimental data from article PMC11586334, “Molecular hybridization modification improves the stability and immunomodulatory activity of TP5 peptide” (Frontiers in Immunology, 2024).
Ends that are not written are not given here.

What was measured:
in vitro = in vitro ADME; conditions: rat
Procedure: Rat plasma was collected by centrifuging whole blood from healthy adult rats. YW12D, TP5, and YTP (10 µg/mL) were incubated for different time at 37°C in rat plasma. The samples were collected into prechilled tubes containing 1 mL of acidic acetone (hydrochloric acid/acetone/H2O, 1:40:5) and centrifuged at 2, 000 × g for 20 min at 4°C. The obtained precipitates were dried in vacuum. Then, the dried precipitates were dissolved in 0.5 mL of 1 M acetic acid. The peptide analysis was conducted using HPLC. The half-lives of the peptides were calculated by a logarithm-linear regression analysis of the peptide concentrations.

RAW264.7 macrophages = assay type: cell-based, murine
Procedure: Murine macrophage cells (RAW264.7) were purchased from the Shanghai Cell Bank, the Institute of Cell Biology, China Academy of Sciences and cultured in Dulbecco’s modified Eagle’s medium (DMEM; HyClone, UT, USA). The DMEM medium was supplemented with 10% (v/v) fetal bovine serum (Bioscience) and 1% (v/v) penicillin/streptomycin (HyClone) and maintained at 37°C in a humidified atmosphere (5% CO2, 95% air).
RAW264.7 viability was measured using a Cell Counting Kit-8 (CCK-8) Assay Kit (Dojinbo, Japan). Cells were seeded in 96-well plates at a density of 2 × 10^4 cells/well and treated with or without YW12D, TP5 and YTP peptides (10–80 μg/mL). After incubation for 24 h, the cells were then incubated in CCK-8 reagent for 4 h at 37°C. The absorbance of each well was measured at 450 nm using a 96-well microplate reader. Cell viability was evaluated as follows:
(1) Cell viability (%)=(OD450 (sample)/OD450 (control))×100%

recombinant TLR2 = molecular target: T1, recombinant TLR2 (Homo sapiens, UniProt O60603); experiment: SPR binding of YTP to immobilized TLR2; conditions: ProteOn XPR36, TLR2 immobilized by amino coupling, 25°C, PBS with 1% Tween 20, 1:1 model
T1 construct: purchased R&D Systems
Procedure: […] (SPR) experiments were conducted using a ProteOn XPR36 instrument (Bio-Rad, Hercules, CA, USA) with a ProteOn GLH sensor chip (Bio-Rad) at 25°C. The running buffer (PBS with 1% Tween 20) was continuously passed into the reaction chamber at 30 μL/min. The SPR sensing chip with recombinant TLR2 (R&D Systems) was immobilized by amino coupling to capture YTP. The binding affinity of YTP to TLR2 was examined using peptide concentrations of […]. The running buffer was injected into the empty channels as a reference. Sensor chip regeneration and desorption were achieved by injecting 10 mM Gly-HCl buffer (pH 2.5) before the next round of analyses. The experimental data were processed using ProteOn manager software (version 2.0). The binding curves were processed for the start injection alignment and baseline. The reference-subtracted sensorgram was then fitted to the curves labeling a homogeneous 1:1 model. Protein surface data were grouped to fit the association (Ka) and dissociation (Kd) rate constants. The symmetry dissociation constant (KD) for the peptide-[…] interaction was evaluated by using the following equation: […]

[1] = molecular target: recombinant TLR2 (Toll-like receptor 2) (UniProt O60603); experiment: SPR; ProteOn XPR36, GLH sensor chip; recombinant TLR2 immobilised by amino coupling; YTP passed over at 0, 1.25, 2.5, 5 and 10 (μM in the results, mM in the methods); 25°C; running buffer PBS with 1% Tween 20, 30 μL/min; homogeneous 1:1 model
recombinant TLR2 (Toll-like receptor 2), sequence (O60603 21-588): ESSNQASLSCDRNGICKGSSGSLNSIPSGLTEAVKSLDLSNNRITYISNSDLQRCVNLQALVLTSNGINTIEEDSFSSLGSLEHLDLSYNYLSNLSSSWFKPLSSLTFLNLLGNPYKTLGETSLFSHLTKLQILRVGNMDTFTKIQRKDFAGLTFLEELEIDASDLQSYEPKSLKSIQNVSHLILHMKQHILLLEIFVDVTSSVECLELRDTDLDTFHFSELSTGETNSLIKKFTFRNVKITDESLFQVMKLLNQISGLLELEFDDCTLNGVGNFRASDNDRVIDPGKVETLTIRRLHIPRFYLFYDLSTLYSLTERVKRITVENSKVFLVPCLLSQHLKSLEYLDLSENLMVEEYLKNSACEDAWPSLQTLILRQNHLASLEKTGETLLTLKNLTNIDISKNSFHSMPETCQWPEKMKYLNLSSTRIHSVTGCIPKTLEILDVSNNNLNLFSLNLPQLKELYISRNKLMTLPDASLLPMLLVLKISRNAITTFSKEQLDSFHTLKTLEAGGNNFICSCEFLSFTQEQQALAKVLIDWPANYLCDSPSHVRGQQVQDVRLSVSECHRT

T1 sequence (O60603 21-784, species assumed): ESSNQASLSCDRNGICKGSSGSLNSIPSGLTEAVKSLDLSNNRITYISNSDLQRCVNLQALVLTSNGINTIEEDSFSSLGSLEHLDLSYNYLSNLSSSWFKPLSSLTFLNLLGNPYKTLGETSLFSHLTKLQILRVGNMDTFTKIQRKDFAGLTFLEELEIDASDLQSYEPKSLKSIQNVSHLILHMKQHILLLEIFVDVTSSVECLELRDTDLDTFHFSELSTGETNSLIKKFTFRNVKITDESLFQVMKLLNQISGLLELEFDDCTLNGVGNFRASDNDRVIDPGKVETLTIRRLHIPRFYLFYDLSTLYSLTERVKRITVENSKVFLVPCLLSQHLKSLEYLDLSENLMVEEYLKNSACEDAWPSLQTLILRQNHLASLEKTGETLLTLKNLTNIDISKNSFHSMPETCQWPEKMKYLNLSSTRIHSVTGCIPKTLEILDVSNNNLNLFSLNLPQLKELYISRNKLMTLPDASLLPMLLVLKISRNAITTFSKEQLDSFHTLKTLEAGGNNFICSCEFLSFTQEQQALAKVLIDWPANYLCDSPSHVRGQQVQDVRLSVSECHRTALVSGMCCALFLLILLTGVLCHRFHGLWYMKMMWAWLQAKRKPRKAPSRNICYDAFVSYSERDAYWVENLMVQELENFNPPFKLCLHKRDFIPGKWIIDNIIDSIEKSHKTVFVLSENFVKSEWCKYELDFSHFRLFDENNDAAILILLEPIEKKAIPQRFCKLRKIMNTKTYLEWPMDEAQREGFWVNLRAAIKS

half-life in plasma (in vitro)	half-life at 10 µg/mL (in vitro; plasma) [h]	Ka (association rate constant) (recombinant TLR2) [M⁻¹ s⁻¹]	Kd (dissociation rate constant) (recombinant TLR2) [s⁻¹]	Kd [1] [nM]	Molecule	cytotoxicity at high dose (RAW264.7 macrophages)
more than 2 h	2	4.31e+06	0.0162		YVKLWRMIKFIRRKDVY [YTP]	no significant cytotoxicity
				3.76	YVKLWRMIKFIRRKDVY [hybrid peptide YW12D-TP5 (YTP)]	
